Laboratory results: PubChem BioAssay (NCI)
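Growth conditions: 96-well plates. Treatment: test compound, 48 hours, 5 concentrations. Analysis: linear interpolation between bracketing concentrations; unreached endpoints set to highest concentration. TGI denotes the concentration required for complete inhibition of growth.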

Experiments:
Assay in all cases: NCI-60 cell line screen, 48 h
TK-10 renal = system: TK-10 renal
K-562 leukemia = system: K-562 leukemia
DU-145 prostate = system: DU-145 prostate
U251 CNS = system: U251 CNS
BT-549 breast = system: BT-549 breast
SF-295 CNS = system: SF-295 CNS
COLO 205 colon = system: COLO 205 colon
OVCAR-5 ovarian = system: OVCAR-5 ovarian
T-47D breast = system: T-47D breast
M14 melanoma = system: M14 melanoma
ACHN renal = system: ACHN renal
PC-3 prostate = system: PC-3 prostate
OVCAR-4 ovarian = system: OVCAR-4 ovarian
NCI-H23 lung = system: NCI-H23 lung
UACC-62 melanoma = system: UACC-62 melanoma
SNB-75 CNS = system: SNB-75 CNS
SK-OV-3 ovarian = system: SK-OV-3 ovarian
SK-MEL-2 melanoma = system: SK-MEL-2 melanoma
HT29 colon = system: HT29 colon
NCI-H226 lung = system: NCI-H226 lung
SNB-19 CNS = system: SNB-19 CNS
SN12C renal = system: SN12C renal
EKVX NSCLC = system: EKVX NSCLC
HCT-116 colon = system: HCT-116 colon
MDA-MB-231 breast = system: MDA-MB-231 breast
A498 renal = system: A498 renal
SK-MEL-28 melanoma = system: SK-MEL-28 melanoma
NCI/ADR-RES ovarian = system: NCI/ADR-RES ovarian
OVCAR-8 ovarian = system: OVCAR-8 ovarian
MCF7 breast = system: MCF7 breast
HCT-15 colon = system: HCT-15 colon
MDA-MB-435 = system: MDA-MB-435
SF-268 CNS = system: SF-268 CNS
HS 578T breast = system: HS 578T breast
HOP-92 NSCLC = system: HOP-92 NSCLC
786-0 renal = system: 786-0 renal
IGROV1 ovarian = system: IGROV1 ovarian
RXF 393 renal = system: RXF 393 renal
MALME-3M melanoma = system: MALME-3M melanoma
A549 NSCLC = system: A549 NSCLC
CAKI-1 renal = system: CAKI-1 renal
MDA-N = system: MDA-N
NCI-H522 lung = system: NCI-H522 lung
SF-539 CNS = system: SF-539 CNS
SK-MEL-5 melanoma = system: SK-MEL-5 melanoma
HCC-2998 colon = system: HCC-2998 colon
HOP-62 NSCLC = system: HOP-62 NSCLC
MOLT-4 leukemia = system: MOLT-4 leukemia
UO-31 renal = system: UO-31 renal
HL-60(TB) leukemia = system: HL-60(TB) leukemia
KM12 colon = system: KM12 colon
SW-620 colon = system: SW-620 colon
UACC-257 melanoma = system: UACC-257 melanoma
NCI-H460 lung = system: NCI-H460 lung
LOX IMVI melanoma = system: LOX IMVI melanoma
OVCAR-3 ovarian = system: OVCAR-3 ovarian
CCRF-CEM leukemia = system: CCRF-CEM leukemia
SR leukemia = system: SR leukemia
RPMI-8226 leukemia = system: RPMI-8226 leukemia

Measured: TGI

CO/C(N)=C(\C#N)N=Cc1ccsc1
69.7 µM: BT-549 breast
79.6 µM: NCI-H522 lung
45.9 µM: HL-60(TB) leukemia
81 µM: CCRF-CEM leukemia
36.7 µM: LOX IMVI melanoma
not listed: SR leukemia | RPMI-8226 leukemia
> 100 µM: all other assays above

CC1(c2ccc(Cl)cc2)C=C(c2ccc(Cl)cc2)C(C#N)=C(C(C#N)C#N)N1 (centres undefined)
36 µM: M14 melanoma
73.8 µM: SR leukemia
28.2 µM: UACC-62 melanoma | SK-MEL-5 melanoma
46.9 µM: T-47D breast
38.2 µM: RXF 393 renal
47 µM: MOLT-4 leukemia
33.9 µM: SF-295 CNS
32.3 µM: NCI-H23 lung | LOX IMVI melanoma
52.9 µM: NCI-H460 lung
33 µM: U251 CNS | OVCAR-5 ovarian
30.7 µM: OVCAR-8 ovarian
31.8 µM: MDA-N
32.8 µM: COLO 205 colon | HT29 colon
33.8 µM: TK-10 renal
26.9 µM: 786-0 renal
37.2 µM: SNB-19 CNS
38.6 µM: KM12 colon
41.1 µM: HL-60(TB) leukemia
25.6 µM: IGROV1 ovarian
37.3 µM: MCF7 breast | UACC-257 melanoma
47.1 µM: SK-MEL-2 melanoma
31.9 µM: HOP-62 NSCLC
32.2 µM: CAKI-1 renal
27.3 µM: HCT-116 colon
33.6 µM: SNB-75 CNS
30.4 µM: HCT-15 colon
39.9 µM: NCI/ADR-RES ovarian
32.6 µM: OVCAR-4 ovarian
33.7 µM: A498 renal
33.5 µM: SN12C renal
43.3 µM: BT-549 breast
21.3 µM: OVCAR-3 ovarian
31.3 µM: EKVX NSCLC | HCC-2998 colon
> 100 µM: K-562 leukemia | RPMI-8226 leukemia | SW-620 colon | CCRF-CEM leukemia
98.2 µM: NCI-H226 lung
34.5 µM: MDA-MB-435
23.9 µM: SF-268 CNS
29.4 µM: HS 578T breast
29.6 µM: DU-145 prostate
66.6 µM: SK-MEL-28 melanoma
30.8 µM: SK-OV-3 ovarian
31.5 µM: PC-3 prostate
42.2 µM: A549 NSCLC
29.1 µM: MALME-3M melanoma
43.9 µM: SF-539 CNS
54.9 µM: MDA-MB-231 breast
30.5 µM: ACHN renal | UO-31 renal

CC(C)C(=O)Cc1ccc2ccccc2n1
19.9 µM: RPMI-8226 leukemia
not listed: K-562 leukemia | SF-539 CNS | MOLT-4 leukemia | SR leukemia
> 100 µM: all other assays above
